SMILES strings stand for the structures.

For the first assay, the target named is T1, human glucagon receptor (Homo sapiens, UniProt P47871).
T1 construct: expressed in transfected cells; cell membranes used
T1 sequence (P47871 26-477): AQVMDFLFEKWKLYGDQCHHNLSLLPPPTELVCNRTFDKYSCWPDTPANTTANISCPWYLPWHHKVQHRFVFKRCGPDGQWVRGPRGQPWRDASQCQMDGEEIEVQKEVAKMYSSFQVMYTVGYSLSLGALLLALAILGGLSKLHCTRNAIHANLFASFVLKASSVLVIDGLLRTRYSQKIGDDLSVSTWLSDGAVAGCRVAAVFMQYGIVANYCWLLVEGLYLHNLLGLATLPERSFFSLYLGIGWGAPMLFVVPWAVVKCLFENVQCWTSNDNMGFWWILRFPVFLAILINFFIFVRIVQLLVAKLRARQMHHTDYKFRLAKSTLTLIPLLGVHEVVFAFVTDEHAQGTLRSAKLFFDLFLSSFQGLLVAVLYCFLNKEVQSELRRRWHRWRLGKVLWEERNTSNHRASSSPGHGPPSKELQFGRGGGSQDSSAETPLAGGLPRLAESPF
As to the kind of experiment: Glucagon Receptor Binding Assay. To be noted: 125I-Glucagon binding to membranes of CHO cells expressing cloned human glucagon receptor; value for the more active diastereomer where both were prepared. How it is done: A stable CHO (Chinese hamster ovary) cell line expressing cloned human glucagon receptor was maintained as described (Chiechi, et. al. J Biol Chem 272, 7765-9 (1997); Cascieri, et. al. J Biol Chem 274, 8694-7 (1999)). To determine antagonistic binding affinity of compounds, 0.001-0.003 mg of cell membranes from these cells were pre-incubated with 0.100 mg WGA-coated PVT SPA beads (Amersham) for 20 minutes at room temperature in 25 μL of a buffer containing 50 mM Tris-HCl (pH 7.5), 5 mM MgCl2, 2 mM EDTA, 0.1% BSA and 3% glycerol in Costar 384 well plates with clear bottoms (#3706). Next, 25 μL of ^125I-Glucagon (New England Nuclear, Mass.) (1×10^−14 mol per well) and either 1 μL solutions of test compounds or 0.001 mM unlabeled glucagon or DMSO were added and mixed. After 4-12 hours incubation at room temperature, the radioactivity bound to the cell membranes was determined in a radioactive emission detection counter (Wallac-Microbeta). Data were analyzed using the Data Analyzer software program of Merck & Co., Inc. The IC50 values were calculated using non-linear regression analysis assuming single-site competition.
By IC50 is commonly meant the concentration that gives 50% inhibition. As for `CCCC(c1ccc(C(=O)NCCC(=O)O)cc1)C(COc1ccc2cc(OC)ccc2c1)c1ccc(Cl)cc1` (racemic) [Example 86, N-[4-(1-{1-(4-chlorophenyl)-2-[(6-methoxy-2-naphthyl)oxy]ethyl}butyl)benzoyl]-β-alanine], the IC50 is 16 nM.

With `CCC[C@H](c1ccc(C(=O)NCCC(=O)O)cc1)[C@H](Oc1ccc(C(F)(F)F)cc1)c1ccc(Cl)cc1` [Example 62], the 50% inhibitory concentration (IC50) was 7.9 nM.

`CCC[C@H](c1ccc(C(=O)NCCC(=O)O)cc1)[C@@H](Oc1ccc(C)c(C#N)c1)c1ccc(Cl)cc1` [Example 16] had an IC50 of 16 nM.

`CCC[C@H](c1ccc(C(=O)NCCC(=O)O)cc1)[C@H](Oc1ccc(C(F)(F)F)cc1Cl)c1ccc(Cl)cc1` [Example 65]: the IC50 turned out to be 12 nM.

On to `CCC[C@H](c1ccc(C(=O)NCCC(=O)O)cc1)[C@@H](Oc1ccc(C(F)(F)F)cc1C#N)c1ccc(Cl)cc1` [Example 80], for which the half-inhibitory concentration (IC50) came out at 3.6 nM.

Take `CCC[C@H](c1ccc(C(=O)NCCC(=O)O)cc1)[C@@H](Oc1ccc(Cl)c(Cl)c1)c1ccc(Cl)cc1` [Example 1, N-(4-{(1R)-1-[(R)-(4-chlorophenyl)(3,4-dichlorophenoxy)methyl]butyl}benzoyl)-β-alanine]: the concentration for half-maximal inhibition (IC50) was determined as 16 nM.

The molecule `CCC[C@H](c1ccc(C(=O)NCCC(=O)O)cc1)[C@@H](Oc1ccnc2c(C)cc(Cl)cc12)c1ccc(Cl)cc1` [Example 67, N-(4-{(1R)-1-[(R)-[(6-chloro-8-methylquinolin-4-yl)oxy](4-chlorophenyl)methyl]butyl}benzoyl)-β-alanine] registered a half-maximal inhibitory concentration (IC50) of 6.6 nM.

As for `CCC[C@H](c1ccc(C(=O)NCCC(=O)O)cc1)[C@@H](Oc1cc(C#N)cc(C(F)(F)F)c1)c1ccc(OC(F)(F)F)cc1` [Example 77, N-[4-((1R)-1-{(R)-(4-trifluoromethoxyphenyl)[3-cyano-5-(trifluoromethyl)phenoxy]methyl}butyl)benzoyl]-β-alanine], the 50% inhibitory concentration (IC50) came to 2.5 nM.

`CCC[C@H](c1ccc(C(=O)NCCC(=O)O)cc1)[C@@H](Oc1ccc(C(F)(F)F)c(C#N)c1)c1ccc(Cl)cc1` [Example 15]: the IC50 was determined as 5.9 nM.

Molecule `CCC[C@H](c1ccc(C(=O)NCCC(=O)O)cc1)[C@@H](Oc1ccnc2cc(C)ccc12)c1ccc(Cl)cc1` [Example 68, N-[4-((1R)-1-{(R)-(4-chlorophenyl)[(7-methylquinolin-4-yl)oxy]methyl}butyl)benzoyl]-β-alanine] came in with an IC50 of 7.2 nM.

The molecule `CCC[C@H](c1ccc(C(=O)NCCC(=O)O)cc1)[C@@H](Oc1cc(C#N)cc(C(F)(F)F)c1)c1ccc(Cl)cc1` [Example 76, N-[4-((1R)-1-{(R)-(4-chlorophenyl)[3-cyano-5-(trifluoromethyl)phenoxy]methyl}butyl)benzoyl]-β-alanine] showed an IC50 of 4.8 nM.

`CCC[C@H](c1ccc(C(=O)NCCC(=O)O)cc1)[C@@H](OCc1ccc(OC(F)(F)F)cc1)c1ccc(Cl)cc1` [Example 72, N-{4-[(1R)-1-((R)-(4-chlorophenyl){[4-(trifluoromethoxy)benzyl]oxy}methyl)butyl]benzoyl}-β-alanine] yielded an IC50 of 32 nM.

On to `CCC[C@H](c1ccc(C(=O)NCCC(=O)O)cc1)[C@@H](Oc1ccnc2cc(C#N)ccc12)c1ccc(Cl)cc1` [Example 71, N-[4-((1R)-1-{(R)-(4-chlorophenyl)[(7-cyanoquinolin-4-yl)oxy]methyl}butyl)benzoyl]-β-alanine], for which the IC50 is 5.5 nM.

The molecule `CCC[C@H](c1ccc(C(=O)NCCC(=O)O)cc1)[C@@H](Oc1ccc(-c2ccc(C(F)(F)F)cc2)cc1C#N)c1ccc(Cl)cc1` [Example 59] had an IC50 of 0.3 nM.

With `CCC[C@H](c1ccc(C(=O)NCCC(=O)O)cc1)[C@@H](Oc1ccc(C#N)c2ccccc12)c1ccc(Cl)cc1` [Example 9], the IC50 stood at 6.2 nM.

In turn, `CCC[C@H](c1ccc(C(=O)NCCC(=O)O)cc1)[C@@H](Oc1cc(C(F)(F)F)nc2ccccc12)c1ccc(Cl)cc1` [Example 70, N-(4-{(1R)-1-[(R)-[(2-trifluoromethylquinolin-4-yl)oxy](4-chlorophenyl)methyl]butyl}benzoyl)-β-alanine] returned an IC50 of 2.1 nM.

Consider `CCC[C@H](c1ccc(C(=O)NCCC(=O)O)cc1)[C@@H](Oc1cc(C#N)c(Cl)c(C(F)(F)F)c1)c1ccc(Cl)cc1` [Example 78, N-(4-{(1R)-1-[(R)-[4-chloro-3-cyano-5-(trifluoromethyl)phenoxy](4-chlorophenyl)methyl]butyl}benzoyl)-β-alanine], for which the IC50 turned out to be 1.4 nM.

`CCC[C@H](c1ccc(C(=O)NCCC(=O)O)cc1)[C@@H](Oc1cc(C(C)(C)C)cc(C(C)(C)C)c1)c1ccc(Cl)cc1` [Example 5] gave an IC50 of 11 nM.

As for `CCC[C@H](c1ccc(C(=O)NCCC(=O)O)cc1)[C@@H](Oc1cc(C(F)(F)F)ccc1C#N)c1ccc(Cl)cc1` [Example 79], the half-maximal inhibitory concentration (IC50) is 7.6 nM.

Consider `CCC[C@H](c1ccc(C(=O)NCCC(=O)O)cc1)[C@@H](Oc1ccc(C#N)c(Cl)c1)c1ccc(Cl)cc1` [Example 18], for which the IC50 was determined as 25 nM.

`CCC[C@H](c1ccc(C(=O)NCCC(=O)O)cc1)[C@@H](Oc1ccc(-c2cccn2C)cc1)c1ccc(Cl)cc1` [Example 47]: the IC50 is 9.2 nM.

As to `CCC[C@H](c1ccc(C(=O)NCCC(=O)O)cc1)[C@@H](OCc1ccc(-c2ccccc2)cc1)c1ccc(Cl)cc1` [Example 74, N-(4-{(1R)-1-[(R)-(biphenyl-4-ylmethoxy)(4-chlorophenyl)methyl]butyl}benzoyl)-β-alanine], the 50% inhibitory concentration (IC50) is 20 nM.

`CCC[C@H](c1ccc(C(=O)NCCC(=O)O)cc1)[C@@H](Oc1ccnc2cc(Cl)ccc12)c1ccc(Cl)cc1` [Example 69, N-[4-((1R)-1-{(R)-(4-chlorophenyl)[(7-chloroquinolin-4-yl)oxy]methyl}butyl)benzoyl]-β-alanine] displayed a half-inhibitory concentration (IC50) of 4.5 nM.

For `CCC[C@H](c1ccc(C(=O)NCCC(=O)O)cc1)[C@@H](Oc1cc(C#N)cc(-c2ccc(C(F)(F)F)cc2)c1)c1ccc(Cl)cc1` [Example 36], the IC50 is 6.3 nM.

Molecule `CCC[C@H](c1ccc(C(=O)NCCC(=O)O)cc1)[C@@H](Oc1cc(Cl)c(Cl)c(C#N)c1)c1ccc(Cl)cc1` [Example 85] came in with an IC50 of 1.1 nM.

`CCC[C@H](c1ccc(C(=O)NCCC(=O)O)cc1)[C@@H](OCc1ccc2ccccc2c1)c1ccc(Cl)cc1` [Example 73, N-(4-{(1R)-1-[(R)-(4-chlorophenyl)(2-naphthylmethoxy)methyl]butyl}benzoyl)-β-alanine] displayed an IC50 of 38 nM.

`N#Cc1cc(Cl)cc(O[C@@H](c2ccc(Cl)cc2)[C@H](CCC(F)(F)F)c2ccc(C(=O)NCCC(=O)O)cc2)c1` [Example 75, N-(4-{(1R)-1-[(R)-(3-chloro-5-cyanophenoxy)(4-chlorophenyl)methyl]-4,4,4-trifluorobutyl}benzoyl)-β-alanine] displayed a concentration for half-maximal inhibition (IC50) of 18 nM.

Staying with this assay, now noted: comparison of major and minor racemic diastereomers.
`CCCC(c1ccc(C(=O)NCCC(=O)O)cc1)C(COc1ccc2cc(OC)ccc2c1)c1ccc(Cl)cc1` (stereo not drawn) [86 major diastereomer]: the “more potent glucagon receptor antagonist of the two diastereomers” value was “more potent glucagon receptor antagonist”.

The record behind these values is US8809579B2, “Glucagon receptor antagonist compounds, compositions containing such compounds and methods of use” (Merck Sharp & Dohme Corp., priority 2009, dated 2014).
